Assay results as given in patent publication US8658646B2, “Pyrrolopyrazine kinase inhibitors” (Hoffmann-LaRoche Inc., priority 2011, dated 2014).
Where a name gives a salt, the structure may show the parent alone.

What follows are compounds tested against T1, recombinant human SYK360-635 (Homo sapiens, UniProt P43405) (assay: Determination of IC50 of Spleen Tyrosine Kinase (SYK) inhibition, 33P ATP filtration assay). Details: SYK aa 360-635 0.5 nM; ATP 20 μM, peptide 5 μM, 0.1% BSA; read-out: SYK_ENZYME_FILTRATION/v1, BSA.
T1 construct: made in house
Assay type: biochemical
Experimental: All concentrations were final in the reaction mixture and all incubations were carried at room temperature. […] SYK Assay Information Determination of IC50 of Spleen Tyrosine Kinase (SYK) Inhibition:
SYK kinase assay is a standard kinase assay adapted to a 96 well plate format. This assay is performed in 96-well format for IC50 determination with 8 samples which represented 10 half log dilutions and a 40 μL reaction volume. The assay measures the incorporation of radiolabeled ^33P γATP into an N-terminally biotinylated peptide substrate, derived from naturally occurring phosphoacceptor consensus sequence (Biotin-11aa DY*E). […] Experimental Method:
DMSO and the mixture was incubated for 10 min at RT.
The kinase reaction was initiated by the addition of 10 μL 4× substrate cocktail containing the DYE peptide substrate [0 or 5 μM], ATP [20 μM] and ^33PγATP [2 μCi/r×n]. After incubation at 30° C. for 15 min, the reaction was terminated by the transfer of 25 μL pf the reaction sample to a 96 well 0.65 μm Millipore MADVNOB membrane/plate containing 200 μL 5 mM EDTA and 20% Streptavidine coated beads in PBS.
The unbound radionucleotides were washed under vacuum with 3×250 μL 2M NaCl; 2×250 μL 2M NaCl+1% phosphoric acid; 1×250 μL H2O. After the last wash membrane/plates were transferred to an adaptor plate, heat dried for 15 min at 60° C., and 50 μL scintillation cocktail was added to each well and 4 h later the amount of radioactivity was counted in a top counter.

Structure (SMILES) | IC50 [nM]
CCc1cccc2c(-c3cnc4[nH]cc(C(=O)NC(C)(C)C)c4n3)n[nH]c12 [Example I-355, 2-(7-Ethyl-1H-indazol-3-yl)-5H-pyrrolo[2,3-b]pyrazine-7-carboxylic acid tert-butylamide] | 3.19
Cc1ccc2c(-c3cnc4[nH]cc(C(=O)NC(C)(C)CO)c4n3)nn(CCN(C)C)c2c1 [Example I-426, 2-[1-(2-Dimethylamino-ethyl)-6-methyl-1H-indazol-3-yl]-5H-pyrrolo[2,3-b]pyrazine-7-carboxylic acid (2-hydroxy-1,1-dimethyl-ethyl)-amide] | 57.4
Cn1ncc2c(-c3cnc4[nH]cc(C(=O)NC(C)(C)C)c4n3)cccc21 [Example I-451, N-tert-Butyl-2-(1-methyl-1H-indazol-4-yl)-5H-pyrrolo[3,2-b]pyrazine-7-carboxamide hydrochloride] | 4.8
CC(C)(CO)NC(=O)c1c[nH]c2ncc(-n3ncc4cc(F)ccc43)nc12 [Example I-320, 2-(5-Fluoro-indazol-1-yl)-5H-pyrrolo[2,3-b]pyrazine-7-carboxylic acid (2-hydroxy-1,1-dimethyl-ethyl)-amide] | 56.7
CC(O)C(C)(C)NC(=O)c1c[nH]c2ncc(-c3nn(C)c4cc(Cl)ccc34)nc12 (stereo not drawn) [Example I-413, 2-(6-Chloro-1-methyl-1H-indazol-3-yl)-5H-pyrrolo[2,3-b]pyrazine-7-carboxylic acid (2-hydroxy-1,1-dimethyl-propyl)-amide] | 34.6
CC(C)(C)NC(=O)c1c[nH]c2ncc(-n3nc(C(F)(F)F)c4c3CCC4)nc12 [Example I-334, 2-(3-Trifluoromethyl-5,6-dihydro-4H-cyclopentapyrazol-1-yl)-5H-pyrrolo[2,3-b]pyrazine-7-carboxylic acid tert-butylamide] | 1840
CC(C)(C)NC(=O)c1c[nH]c2ncc(-n3ncc4ccc(Cl)cc43)nc12 [Example I-329, 2-(6-Chloro-indazol-1-yl)-5H-pyrrolo[2,3-b]pyrazine-7-carboxylic acid tert-butylamide] | 82.2
CC(C)(C)NC(=O)c1c[nH]c2ncc(-c3cccc4cc[nH]c34)nc12 [Example I-304, 2-(1H-Indol-7-yl)-5H-pyrrolo[2,3-b]pyrazine-7-carboxylic acid tert-butylamide] | 7.35
Cn1nc(-c2cnc3[nH]cc(C(=O)N[C@@H]4CCC[C@@H](N)C4)c3n2)c2ccc(Cl)cc21 (relative stereo) [Example I-276, 2-(6-Chloro-1-methyl-1H-indazol-3-yl)-5H-pyrrolo[2,3-b]pyrazine-7-carboxylic acid (trans-3-amino-cyclohexyl)-amide] | 16.4
Cn1nc(-c2cnc3[nH]cc(C(=O)NC(C)(C)CN)c3n2)c2ccc(F)cc21 [Example I-379, 2-(6-Fluoro-1-methyl-1H-indazol-3-yl)-5H-pyrrolo[2,3-b]pyrazine-7-carboxylic acid (2-amino-1,1-dimethyl-ethyl)-amide] | 145
CC(CC1CC1)NC(=O)c1c[nH]c2ncc(-c3nn(C)c4cc(F)ccc34)nc12 (stereo not drawn) [Example I-186, 2-(6-Fluoro-1-methyl-1H-indazol-3-yl)-5H-pyrrolo[2,3-b]pyrazine-7-carboxylic acid (2-cyclopropyl-1-methyl-ethyl)-amide] | 129
Cn1nc(-c2cnc3[nH]cc(C(=O)NC(C)(C)C(F)(F)F)c3n2)c2ccc(Cl)cc21 [Example I-390, 2-(6-Chloro-1-methyl-1H-indazol-3-yl)-5H-pyrrolo[2,3-b]pyrazine-7-carboxylic acid (2,2,2-trifluoro-1,1-dimethyl-ethyl)-amide] | 42.4
Cc1cc2cccc(-c3cnc4[nH]cc(C(=O)NC(C)(C)C)c4n3)c2[nH]1 [Example I-303, 2-(2-Methyl-1H-indol-7-yl)-5H-pyrrolo[2,3-b]pyrazine-7-carboxylic acid tert-butylamide] | 64.1
C[C@@H](NC(=O)c1c[nH]c2ncc(-c3nn(C)c4cc(C#N)ccc34)nc12)C(=O)N1CC(C#N)C1 [Example I-22, 2-(6-Cyano-1-methyl-1H-indazol-3-yl)-5H-pyrrolo[2,3-b]pyrazine-7-carboxylic acid [(R)-2-(3-cyano-azetidin-1-yl)-1-methyl-2-oxo-ethyl]-amide] | 45.7
CC(C)(CO)NC(=O)c1c[nH]c2ncc(-c3n[nH]c4cc(Cl)ccc34)nc12 [Example I-414, 2-(6-Chloro-1H-indazol-3-yl)-5H-pyrrolo[2,3-b]pyrazine-7-carboxylic acid (2-hydroxy-1,1-dimethyl-ethyl)-amide] | 5.25
CC(C)NC(=O)c1c[nH]c2ncc(-c3nn(Cc4ccccc4)c4cc(Cl)ccc34)nc12 [Example I-308, 2-(1-Benzyl-6-chloro-1H-indazol-3-yl)-5H-pyrrolo[2,3-b]pyrazine-7-carboxylic acid isopropylamide] | 860
CC(C)(C)NC(=O)c1c[nH]c2ncc(-c3nccc4cc[nH]c34)nc12 [Example I-328, 2-(1H-Pyrrolo[2,3-c]pyridin-7-yl)-5H-pyrrolo[2,3-b]pyrazine-7 carboxylic acid tert-butylamide] | 970
Cn1nc(-c2cnc3[nH]cc(C(=O)NC4(C)CNC4)c3n2)c2ccc(F)cc21 [Example I-409, 2-(6-Fluoro-1-methyl-1H-indazol-3-yl)-5H-pyrrolo[2,3-b]pyrazine-7-carboxylic acid (3-methyl-azetidin-3-yl)-amide] | 317
COc1ccc2c(c1)c(-c1cnc3[nH]cc(C(=O)N[C@@H]4CCCC[C@@H]4N)c3n1)nn2C [Example I-291, 2-(5-Methoxy-1-methyl-1H-indazol-3-yl)-5H-pyrrolo[2,3-b]pyrazine-7-carboxylic acid ((1R,2S)-2-amino-cyclohexyl)-amide] | 1000
Cn1nc(-c2cnc3[nH]cc(C(=O)NC4CCCC(N)C4)c3n2)c2ccc(Cl)cc21 (stereo not drawn) [Example I-403, 2-(6-Chloro-1-methyl-1H-indazol-3-yl)-5H-pyrrolo[2,3-b]pyrazine-7-carboxylic acid (3-amino-cyclohexyl)-amide] | 13.6
Cc1ccc2c(-c3cnc4[nH]cc(C(=O)NC(C)(C)CO)c4n3)n[nH]c2c1 [Example I-434, 2-(6-Methyl-1H-indazol-3-yl)-5H-pyrrolo[2,3-b]pyrazine-7-carboxylic acid (2-hydroxy-1,1-dimethyl-ethyl)-amide] | 4.6
Cn1nc(-c2cnc3[nH]cc(C(=O)NC4(C)COC4)c3n2)c2ccc(F)cc21 [Example I-386, 2-(6-Fluoro-1-methyl-1H-indazol-3-yl)-5H-pyrrolo[2,3-b]pyrazine-7-carboxylic acid (3-methyl-oxetan-3-yl)-amide] | 104

More lines, now with the values ahead:

IC50 [nM] | Structure (SMILES)
14.4 | CN1CCC(n2nc(-c3cnc4[nH]cc(C(=O)NC(C)(C)C)c4n3)c3cc(OC(F)F)ccc32)CC1 [Example I-263, 2-[5-Difluoromethoxy-1-(1-methyl-piperidin-4-yl)-1H-indazol-3-yl]-5H-pyrrolo[2,3-b]pyrazine-7-carboxylic acid tert-butylamide]
15.1 | CC(C)c1ccc2c(c1)c(-c1cnc3[nH]cc(C(=O)NC(C)(C)C)c3n1)nn2C [Example I-458, N-tert-Butyl-2-(5-isopropyl-1-methyl-1H-indazol-3-yl)-5H-pyrrolo[2,3-b]pyrazine-7-carboxamide]
5.55 | CC(=O)N(C)CCCn1nc(-c2cnc3[nH]cc(C(=O)NC(C)(C)C)c3n2)c2cc(OC(F)F)ccc21 [Example I-346, 2-{1-[3-(Acetyl-methyl-amino)-propyl]-5-difluoromethoxy-1H-indazol-3-yl}-5H-pyrrolo[2,3-b]pyrazine-7-carboxylic acid tert-butylamide]
716 | Cn1nc(-c2cnc3[nH]cc(C(=O)NC(C)(C)C(=O)OC(C)(C)C)c3n2)c2ccc(F)cc21 [Example I-381, 2-{[2-(6-Fluoro-1-methyl-1H-indazol-3-yl)-5H-pyrrolo[2,3-b]pyrazine-7-carbonyl]-amino}-2-methyl-propionic acid tert-butyl ester]
17.2 | CN1CCOC(Cn2nc(-c3cnc4[nH]cc(C(=O)NC(C)(C)C)c4n3)c3cc(OC(F)F)ccc32)C1 (stereo not drawn) [Example I-342, 2-[5-Difluoromethoxy-1-(4-methyl-morpholin-2-ylmethyl)-1H-indazol-3-yl]-5H-pyrrolo[2,3-b]pyrazine-7-carboxylic acid tert-butylamide]
56.3 | CN1CCN(C(=O)Cn2nc(-c3cnc4[nH]cc(C(=O)NC(C)(C)C)c4n3)c3cc(OC(F)F)ccc32)CC1 [Example I-353, 2-{5-Difluoromethoxy-1-[2-(4-methyl-piperazin-1-yl)-2-oxo-ethyl]-1H-indazol-3-yl}-5H-pyrrolo[2,3-b]pyrazine-7-carboxylic acid tert-butylamide]
1.83 | CC(C)(C)NC(=O)c1c[nH]c2ncc(-c3nn(C4CCNCC4)c4ccc(OC(F)F)cc34)nc12 [Example I-261, 2-(5-Difluoromethoxy-1-piperidin-4-yl-1H-indazol-3-yl)-5H-pyrrolo[2,3-b]pyrazine-7-carboxylic acid tert-butylamide]
24.6 | CC(C)(C)NC(=O)c1c[nH]c2ncc(-c3nn(C4CCNC4)c4cc(F)ccc34)nc12 (stereo not drawn) [Example I-258, 2-(6-Fluoro-1-pyrrolidin-3-yl-1H-indazol-3-yl)-5H-pyrrolo[2,3-b]pyrazine-7-carboxylic acid tert-butylamide]
37.6 | CC(C)(C)NC(=O)c1c[nH]c2ncc(-n3ncc4cc(OC(F)F)ccc43)nc12 [Example I-325, 2-(5-Difluoromethoxy-indazol-1-yl)-5H-pyrrolo[2,3-b]pyrazine-7-carboxylic acid tert-butylamide]
33.5 | Cn1nc(-c2cnc3[nH]cc(C(=O)NC(C)(C)C)c3n2)c2ccc(C(F)(F)F)cc21 [Example I-420, 2-(1-Methyl-6-trifluoromethyl-1H-indazol-3-yl)-5H-pyrrolo[2,3-b]pyrazine-7 carboxylic acid tert-butylamide]
4.7 | Cn1nc(-c2cnc3[nH]cc(C(=O)NC(C)(C)C)c3n2)c2ccccc21 [Example I-410, 2-(1-Methyl-1H-indazol-3-yl)-5H-pyrrolo[2,3-b]pyrazine-7-carboxylic acid tert-butylamide]
